Test results published in paper PMC11480411, “Mucosal sugars delineate pyrazine vs pyrazinone autoinducer signaling in Klebsiella oxytoca” (Nature Communications, 2024).

Tested on: leup operon (leupeptin BGC) promoter in K. oxytoca ATCC 8724
Assay: GFP-based transcriptional reporter for the leup operon
Format: cell-based, Klebsiella oxytoca
Conditions: carbohydrate screen, M9 + casamino acid + 0.4% indicated sugar, 30 °C, 24 h; for GFP fluorescence, GFP Strain + Media: leup GFP reporter strain; for GFP fluorescence, WT + Media: wildtype K. oxytoca without reporter (background)
Description: We previously examined a panel of 84 clinical K. oxytoca isolates (including recently renamed Klebsiella michiganensis isolates) for the presence of either the leup operon or npsB, an NRPS of the tilimycin/tilivalline gene cluster. […] While the roles of tilivalline and tilimycin in hemorrhagic colitis are well studied[8],[9], the operon for leupeptin biosynthesis is “silent” in K. oxytoca under typical laboratory culture conditions (i.e., leupeptin production is undetectable). Therefore, our study commenced by exploring growth conditions required to trigger leupeptin biosynthesis in K. oxytoca. To achieve this, we generated a green fluorescent protein (GFP)-based reporter system to monitor leup transcription in K. oxytoca ATCC 8724 (recently renamed as Klebsiella michiganensis (ATCC 8724), Fig. 1a). We utilized λ-red recombineering techniques[38] to replace the first biosynthetic gene (leupA) of the leupeptin BGC with a GFP-spectinomycin resistance cassette. […] Consequently, conditions that elicit transcription of the leupeptin BGC can be monitored by GFP fluorescence intensity.
5 mL of the leupeptin reporter strain was cultured aerobically in 10 g/L of LB (Becton Dickinson), yeast extract, GAM (HiMedia Laboratories), horse liver extract (HiMedia Laboratories), malt extract (VWR), meat extract (HiMedia Laboratories), YPD (Dot Scienticifc), brain heart infusion (Becton Dickinson), porcine mucin (Sigma-Aldrich, M1778), clostridial (Becton Dickinson), TSB (VWR), or casamino acid supplemented (5 g/L, VWR) M9 minimal salts (MP Biomedicals) at 30 °C for 24 h at 250 rpm. Cultures were lysed via sonication, centrifuged, and 150 µL of the supernatants were aliquoted into black well clear bottom 96 well plates. GFP fluorescence measurements were performed on a BioTek Synergy H1 plate reader with an excitation wavelength of 488 nm and an emission wavelength of 525 nm. For the carbohydrate screen, the leupeptin reporter strain was cultured in M9 minimal medium (MPbio) supplemented with casamino acid (5 g/L, VWR) and 0.4% indicated sugar aerobically at 30 °C for 24 h at 250 rpm.

Question: What does the source list for `OC[C@H]1O[C@@H](O[C@H]2[C@H](O)[C@@H](O)C(O)O[C@@H]2CO)[C@H](O)[C@@H](O)[C@H]1O` (mixture of isomers) [Lactose]?
Answer: GFP fluorescence, GFP Strain + Media: 5276 RFU; GFP fluorescence, WT + Media: 4982 RFU

Question: Which results are given for `O[C@@H]1[C@@H](O)[C@@H](O)CO[C@H]1O` [Arabinose]?
Answer: GFP fluorescence, GFP Strain + Media: 9484 RFU; GFP fluorescence, WT + Media: 6365 RFU

Question: What does the source list for `O=C(CO)[C@@H](O)[C@H](O)[C@H](O)CO` [Fructose]?
Answer: GFP fluorescence, GFP Strain + Media: 9618 RFU; GFP fluorescence, WT + Media: 6828 RFU

Question: What does the source list for `CC(=O)N[C@H]1C(O)O[C@H](CO)[C@H](O)[C@@H]1O` (stereo partly shown) [GalNAc]?
Answer: GFP fluorescence, GFP Strain + Media: 9643 RFU; GFP fluorescence, WT + Media: 8779 RFU

Question: How did the “GFP fluorescence, GFP Strain + Media” value turn out when `O=C[C@H](O)[C@@H](O)[C@@H](O)[C@H](O)CO` [Galactose] was run?
Answer: 9159 RFU

Question: What about the “GFP fluorescence, WT + Media” value of the same compound?
Answer: 6849 RFU

Question: How did the “GFP fluorescence, GFP Strain + Media” value turn out when `CC(=O)N[C@@H]1[C@@H](O)[C@H](O)[C@@H](CO)O[C@H]1O` [GlcNAc] was run?
Answer: 9678 RFU

Question: And the “GFP fluorescence, WT + Media” value?
Answer: 5235 RFU

Question: Which “GFP fluorescence, GFP Strain + Media” value does the source give for `N[C@H]1C(O)O[C@H](CO)[C@@H](O)[C@@H]1O` (stereo partly shown) [Glucosamine] here?
Answer: 9974 RFU

Question: What about the “GFP fluorescence, WT + Media” value of the same compound?
Answer: 5479 RFU

Question: For `OC[C@H]1OC(O)[C@H](O)[C@@H](O)[C@@H]1O` (stereo partly shown) [Glucose], which “GFP fluorescence, GFP Strain + Media” value is on record?
Answer: 9593 RFU

Question: What about the “GFP fluorescence, WT + Media” value of the same compound?
Answer: 8596 RFU

Question: What does the source list for `CC(C)S[C@@H]1O[C@H](CO)[C@H](O)[C@H](O)[C@H]1O` [IPTG]?
Answer: GFP fluorescence, GFP Strain + Media: 9918 RFU; GFP fluorescence, WT + Media: 8873 RFU

Question: Which “GFP fluorescence, GFP Strain + Media” value does the source give for `OC[C@@H](O)[C@@H](O)[C@H](O)[C@@H](O)CO` [Sorbital] here?
Answer: 10051 RFU

Question: And the “GFP fluorescence, WT + Media” value?
Answer: 6226 RFU

Question: Which results are given for `O=C[C@H](O)[C@@H](O)[C@H](O)CO` [Xylose]?
Answer: GFP fluorescence, GFP Strain + Media: 9892 RFU; GFP fluorescence, WT + Media: 5418 RFU
